Data on 1 substance can be found in patent publication US11370841B2, “Methods of treating fibroblast growth factor 19-mediated cancers and tumors” (NGM Biopharmaceuticals, Inc., priority 2016, dated 2022).

For one data set, the system named is FGF19-mediated HCC. The data set is described as follows: Anti-IL-6 treatment in Mdr2-/- mice expressing AAV-FGF19. Type of data set: in vivo. As to conditions: prolonged expression of FGF19. Here is the method:
Blood parameters. […] Serum insulin was assessed with ELISA kits from ALPCO. […] All assays were performed according to the manufacturers' instructions.
Histology and immunohistochemistry. […] Hematoxylin and eosin staining was performed using standard methods. […] When indicated, sections were counterstained with hematoxylin.
Anti-IL-6 treatment in Mdr2^−/− mice. […] Anti-IL-6 treatment started 14 weeks after AAV injection. Mice were dosed with anti-mouse IL-6 antibody (Bio-X-Cell) or an isotype control antibody (Bio-X-Cell) once weekly i.p. at 10 mg/kg for a total of 10 doses. Mice were euthanized 24 weeks post-AAV administration for liver tumor assessment. When indicated, Mdr2^−/− mice injected with AAV-GFP serve as controls for evaluating serum levels of liver enzymes.

In another data set the test system is STAT3. Nature of the data set: In vivo pSTAT3 activation, immunoblot of liver lysates. Conditions: db/db mice, 1 mg/kg FGF19 i.p. On the procedure: In vivo pSTAT3 activation.
(§1) Immunoblotting. Cell or tissue lysates were mixed with 4×SDS sample loading buffer (50 mM Tris-Cl, pH6.8, 2.5% SDS, urea, 4% β-mercaptoethanol), heated for 10 minutes at 95° C., and separated on 4-20% SDS-polyacrylamide gels (Life Technologies) in 1×MOPS running buffer. Proteins were transferred onto PVDF membranes (GE Healthcare). Membranes were blocked in TBST buffer (20 mM Tris-Cl, pH 7.6, 137 mM NaCl, 0.1% Tween-20) containing 5% non-fat dry milk for 1 hour at room temperature, and incubated with anti-pSTAT3^Y705, anti-total STAT3, anti-pERK, anti-total ERK, or anti-β-actin antibodies in blocking buffer at 4° C. overnight. Membranes were washed in TBST extensively, and bound proteins were detected with horseradish peroxidase-conjugated goat-anti-mouse IgG or goat-anti-rabbit IgG antibodies (GE Healthcare) for 1 hour at room temperature. Signals were developed with SuperSignal West Dura extended duration substrate (Thermo Scientific), and captured with a ChemiDoc XrS+ imaging system (Bio-Rad).
To examine STAT3 activation following FGF19 treatment in vivo, 11 week old diabetic db/db mice (on BKS background) were administered with 1 mg/kg of recombinant FGF19 protein i.p., and livers were harvested after 2 hours. Phosphorylation of STAT3 at tyrosine residue 705 (pSTAT3^Y705) was evident by immunoblotting of liver lysates (FIG. 1A). […]
Background: A western blot detects proteins with antibodies after separation by electrophoresis.

Data set [1] concerns primary mouse hepatocytes. Nature of the data set: In vitro BrdU incorporation in primary mouse hepatocytes. Type of data set: cell-based. Conditions: 48 hours incubation. Here is the method:
(§2) FIGS. 2A-2E depict non-cell autonomous promotion of hepatocellular proliferation by FGF19. 11 week old mice (n=5 per group) were implanted with osmotic pumps releasing BrdU (8.5 mg/kg/day) and FGF19 protein (0.4 mg/kg/day). Livers were harvested 6 days post-implant. (FIG. 2A) Flow cytometry analysis of BrdU-labeled livers is shown. Representative histograms from hepatocytes stained with 7-ADD and anti-BrdU-APC are shown. (FIG. 2B) BrdU-positive hepatocytes as a percentage of total hepatocytes from vehicle (V)-treated (n=5) or FGF19-treated (n=5) mice were quantified by flow cytometry. (FIG. 2C) Shown are circulating FGF19 levels on day 6 post-implant of osmotic pumps. (FIG. 2D) Lack of proliferative effects of FGF19 on primary mouse hepatocytes. Primary cultures of hepatocytes isolated from mouse liver were incubated with recombinant FGF19 protein at the indicated concentrations for 48 hours and BrdU was added during the last 20 hours of incubation. BrdU incorporation was determined using a luminescence method. Mouse hepatocyte growth factor (mHGF) was included as a positive control. RLU, relative luminescence unit. (FIG. 2E) Lack of proliferative effects of FGF19 on primary human hepatocytes. Primary cultures of hepatocytes isolated from human liver were incubated with recombinant FGF19 protein. Human hepatocyte growth factor (hHGF) was included as a positive control. […]

Data set [2] relates to primary mouse hepatocytes. Nature of the data set: In vitro pSTAT3 activation in primary mouse hepatocytes. Format: cell-based. On the procedure:
Primary mouse hepatocytes were isolated from 8-10 week old wild type mice (BioReclamation/IVT). Cells were diluted in attachment media, and cells were plated on collagen-coated 6-well plate (Becton Dickinson). Four hours later, cells were changed into M199 media supplemented with 10% FBS, 2 mM glutamine, 100 unit/ml penicillin, 100 unit/ml streptomycin, and cultured for 16 hours at 37° C. When indicated, 50 ng/ml FGF19 protein or 50 ng/ml mouse IL-6 (Peprotech) were added.
Cell extracts were prepared in 50 mM Tris-Cl, PH 7.2, 150 mM NaCl, 1% NP-40, 0.1% SDS, 0.5% sodium deoxycholate supplemented with a protease inhibitor cocktail (Roche) and phosphatase inhibitors (Sigma, phosphatase inhibitor cocktail set 2 and set 3), and protein concentrations were determined by BCA protein assay (Thermo Scientific).
as §1, with “Signals were developed with SuperSignal West Dura extended duration substrate (Thermo Scientific), and captured with a ChemiDoc XrS+ imaging system (Bio-Rad).” left out
To investigate an in vitro direct effect of FGF19 on STAT3 activation in isolated hepatocytes, pSTAT3^Y705 levels in primary cultures of hepatocytes upon FGF19 stimulation were analyzed by western blotting. […] Cell lysates were prepared at the indicated time points following FGF19 stimulation and analyzed for phosphorylation of the various proteins.

Data set [3] relates to primary human hepatocytes. Nature of the data set: In vitro BrdU incorporation in primary human hepatocytes. Format: cell-based. As to conditions: purified primary human hepatocytes. On the procedure:
as §2
Background: Dividing cells build labelled thymidine or BrdU into new DNA.

As to “FGF19: Fibroblast growth factor 19, mature human 194 amino acid polypeptide (SEQ ID NO: 1); recombinant protein or AAV-expressed”, in the data set with FGF19-mediated HCC, the Liver tumor formation result was “induced liver tumor formation”. Also, the “Phosphorylation of ERK1 and ERK2 in the liver” value in the data set with STAT3 (2 hours) was “induced phosphorylation”. Moreover, the “Phosphorylation of STAT3 at tyrosine residue 705 (pSTAT3 Y705) in liver lysates” value in the data set with STAT3 (livers harvested after 2 hours) is reported as “evident”. In data set [1], the BrdU signal entry is “no increase”. In addition, in data set [2] (isolated mouse hepatocytes, 50 ng/ml), the “STAT3 phosphorylation (pSTAT3 Y705) by western blotting” value was “did not enhance STAT3 phosphorylation”. Besides, in data set [2] (primary cultures of mouse hepatocytes), the “Phosphorylation of ERK1 and ERK2” value was “apparent”. For the same substance, the “Proliferative effect (BrdU incorporation)” value in data set [3] is on record as “lack of direct proliferative effect”.
